From ChEMBL document CHEMBL1140510, “New 1,2,3,4-tetrahydropyrrolo[3,4-b]indole derivatives as selective CB2 receptor agonists” (Bioorg Med Chem Lett, 2007)
pEC50, pKi: −log10 of the molar value.

Assays:
Cannabinoid receptor 1 = Cannabinoid receptor 1 (Homo sapiens, UniProt P21554); test: Binding affinity to human CB1 receptor
Cannabinoid receptor 2 [1] = molecular target: T1, Cannabinoid receptor 2 (Homo sapiens, UniProt P34972); test: Binding affinity to human CB2 receptor
Homo sapiens = species: Homo sapiens; test: Selectivity for human CB2 receptor over human CB1 receptor
Cannabinoid receptor 2 [2] = molecular target: T1, Cannabinoid receptor 2; test: Agonist activity at human CB2 receptor by GTPgamma[35S] assay; format: functional
Cannabinoid receptor 2 [3] = molecular target: T1, Cannabinoid receptor 2; test: Agonist activity at human CB2 receptor by GTPgamma[35S] assay relative to WIN-55212-2; format: functional

T1 sequence (P34972 whole entry): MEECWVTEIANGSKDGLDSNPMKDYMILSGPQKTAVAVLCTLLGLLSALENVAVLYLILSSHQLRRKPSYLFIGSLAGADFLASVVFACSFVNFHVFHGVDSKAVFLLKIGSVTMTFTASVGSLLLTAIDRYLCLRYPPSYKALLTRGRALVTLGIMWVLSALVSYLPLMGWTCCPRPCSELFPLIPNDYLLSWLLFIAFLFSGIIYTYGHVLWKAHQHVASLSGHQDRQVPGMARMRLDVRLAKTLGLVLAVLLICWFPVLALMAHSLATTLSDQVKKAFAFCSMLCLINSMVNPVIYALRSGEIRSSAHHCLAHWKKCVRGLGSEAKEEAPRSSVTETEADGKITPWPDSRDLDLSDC
Sequence of Cannabinoid receptor 1 (P21554 whole entry): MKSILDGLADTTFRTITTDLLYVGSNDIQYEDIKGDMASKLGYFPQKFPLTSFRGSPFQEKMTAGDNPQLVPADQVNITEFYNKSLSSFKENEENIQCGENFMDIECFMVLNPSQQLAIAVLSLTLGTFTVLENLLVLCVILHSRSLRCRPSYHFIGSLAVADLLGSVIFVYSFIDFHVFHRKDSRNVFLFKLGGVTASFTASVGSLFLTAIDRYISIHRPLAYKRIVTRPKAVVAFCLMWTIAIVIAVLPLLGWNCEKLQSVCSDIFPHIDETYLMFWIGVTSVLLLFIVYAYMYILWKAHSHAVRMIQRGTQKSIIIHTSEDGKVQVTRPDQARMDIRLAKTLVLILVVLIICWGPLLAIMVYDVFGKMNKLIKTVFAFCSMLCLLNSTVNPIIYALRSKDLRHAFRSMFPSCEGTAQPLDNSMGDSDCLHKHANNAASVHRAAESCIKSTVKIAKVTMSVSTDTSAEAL

CC1CCN(C(=O)c2ccc3c(c2)c2c(n3S(=O)(=O)C(C)C)CN(C3CCCC3)C2)CC1
pKi (Cannabinoid receptor 1): 6.82
pKi (Cannabinoid receptor 2 [1]): 8.38
Ratio Ki (Homo sapiens): 35.7
pEC50 (Cannabinoid receptor 2 [2]): 9.30
Emax (Cannabinoid receptor 2 [3]): 105%

CCS(=O)(=O)n1c2c(c3cc(C(=O)N4CCC(C)CC4)ccc31)CN(CC1CCCCC1)C2
pKi (Cannabinoid receptor 1): 6.47
pKi (Cannabinoid receptor 2 [1]): 6.03
Ratio Ki (Homo sapiens): 0.4

CC1CCN(C(=O)c2ccc3c(c2)c2c(n3C)CN(C3CCCC3)C2)CC1
pKi (Cannabinoid receptor 1): 5.74
pKi (Cannabinoid receptor 2 [1]): 7.07
Ratio Ki (Homo sapiens): 21.4

CCCN1Cc2c(n(S(=O)(=O)CC)c3ccc(C(=O)N4CCC(C)CC4)cc23)C1
pKi (Cannabinoid receptor 1): 6.22
pKi (Cannabinoid receptor 2 [1]): 7.95
Ratio Ki (Homo sapiens): 54.4
pEC50 (Cannabinoid receptor 2 [2]): 9.10
Emax (Cannabinoid receptor 2 [3]): 104%

C=CCN1Cc2c(n(S(=O)(=O)CC)c3ccc(C(=O)N4CCC(C)CC4)cc23)C1
pKi (Cannabinoid receptor 1): 6.58
pKi (Cannabinoid receptor 2 [1]): 8.19
Ratio Ki (Homo sapiens): 41.1
pEC50 (Cannabinoid receptor 2 [2]): 9.52
Emax (Cannabinoid receptor 2 [3]): 104%

CCCS(=O)(=O)n1c2c(c3cc(C(=O)N4CCC(C)CC4)ccc31)CN(C1CCCC1)C2
pKi (Cannabinoid receptor 1): 6.71
pKi (Cannabinoid receptor 2 [1]): 7.65
Ratio Ki (Homo sapiens): 8.7
pEC50 (Cannabinoid receptor 2 [2]): 8.17
Emax (Cannabinoid receptor 2 [3]): 90%

CCS(=O)(=O)n1c2c(c3cc(C(=O)N4CCC(C)CC4)ccc31)CN(C1CCCC1)C2
pKi (Cannabinoid receptor 1): 7.18
pKi (Cannabinoid receptor 2 [1]): 8.15
Ratio Ki (Homo sapiens): 9.4
pEC50 (Cannabinoid receptor 2 [2]): 9.10
Emax (Cannabinoid receptor 2 [3]): 110%

C=CCn1c2c(c3cc(C(=O)N4CCC(C)CC4)ccc31)CN(C1CCCC1)C2
pKi (Cannabinoid receptor 1): 6.16
pKi (Cannabinoid receptor 2 [1]): 7.63
Ratio Ki (Homo sapiens): 29.8
pEC50 (Cannabinoid receptor 2 [2]): 8.30
Emax (Cannabinoid receptor 2 [3]): 92%

CC1CCN(C(=O)c2ccc3c(c2)c2c(n3S(=O)(=O)C3CC3)CN(C3CCCC3)C2)CC1
pKi (Cannabinoid receptor 1): 6.86
pKi (Cannabinoid receptor 2 [1]): 8.03
Ratio Ki (Homo sapiens): 14.6
pEC50 (Cannabinoid receptor 2 [2]): 8.82
Emax (Cannabinoid receptor 2 [3]): 101%

CC1CCN(C(=O)c2ccc3[nH]c4c(c3c2)CN(C2CCCC2)C4)CC1
pKi (Cannabinoid receptor 1): < 5.10
pKi (Cannabinoid receptor 2 [1]): 5.33

CCS(=O)(=O)n1c2c(c3cc(C(=O)N4CCC(C)CC4)ccc31)CN(Cc1ccccc1)C2
pKi (Cannabinoid receptor 1): 5.90
pKi (Cannabinoid receptor 2 [1]): 7.43
Ratio Ki (Homo sapiens): 34.4

CCS(=O)(=O)n1c2c(c3cc(C(=O)N4CCC(C)CC4)ccc31)CN(C(C)C)C2
pKi (Cannabinoid receptor 1): 6.38
pKi (Cannabinoid receptor 2 [1]): 8.05
Ratio Ki (Homo sapiens): 47
pEC50 (Cannabinoid receptor 2 [2]): 9.05
Emax (Cannabinoid receptor 2 [3]): 101%

CCS(=O)(=O)n1c2c(c3cc(C(=O)N4CCC(C)CC4)ccc31)CN(C1CCCCO1)C2 (stereo not drawn)
pKi (Cannabinoid receptor 1): 5.21
pKi (Cannabinoid receptor 2 [1]): 7.75
Ratio Ki (Homo sapiens): 351
pEC50 (Cannabinoid receptor 2 [2]): 8.77
Emax (Cannabinoid receptor 2 [3]): 107%

CCS(=O)(=O)n1c2c(c3cc(C(=O)N4CCCCC4)ccc31)CN(C1CCCC1)C2
pKi (Cannabinoid receptor 1): 6.09
pKi (Cannabinoid receptor 2 [1]): 7.76
Ratio Ki (Homo sapiens): 46.7
pEC50 (Cannabinoid receptor 2 [2]): 8.77
Emax (Cannabinoid receptor 2 [3]): 107%

CCS(=O)(=O)n1c2c(c3cc(C(=O)N4CCC(OC)CC4)ccc31)CN(C1CCCC1)C2
pKi (Cannabinoid receptor 1): 5.67
pKi (Cannabinoid receptor 2 [1]): 7.56
Ratio Ki (Homo sapiens): 77.2

CC1CCN(C(=O)c2ccc3c(c2)c2c(n3Cc3ccccc3)CN(C3CCCC3)C2)CC1
pKi (Cannabinoid receptor 1): 6.18
pKi (Cannabinoid receptor 2 [1]): 6.97
Ratio Ki (Homo sapiens): 6.2

CCS(=O)(=O)n1c2c(c3cc(C(=O)N4CCC(C)CC4)ccc31)CN(CCC1CCCCC1)C2
pKi (Cannabinoid receptor 1): 5.56
pKi (Cannabinoid receptor 2 [1]): 5.70
Ratio Ki (Homo sapiens): 1.4

CCS(=O)(=O)n1c2c(c3cc(C(=O)N4CCOCC4)ccc31)CN(C1CCCC1)C2
pKi (Cannabinoid receptor 1): < 5.10
pKi (Cannabinoid receptor 2 [1]): 6.51
Ratio Ki (Homo sapiens): > 25

CCS(=O)(=O)n1c2c(c3cc(C(=O)N(C)C(C)C)ccc31)CN(C1CCCC1)C2
pKi (Cannabinoid receptor 1): 5.14
pKi (Cannabinoid receptor 2 [1]): 6.97
Ratio Ki (Homo sapiens): 67.5

CCCCCc1cc(O)c2c(c1)CC(C)(C)[C@@H]1CCC(C)=C[C@@H]21
pKi (Cannabinoid receptor 1): 7.70
pKi (Cannabinoid receptor 2 [1]): 6.85
Ratio Ki (Homo sapiens): 0.14
pEC50 (Cannabinoid receptor 2 [2]): 7.87
Emax (Cannabinoid receptor 2 [3]): 64%

CC(=O)n1c2c(c3cc(C(=O)N4CCC(C)CC4)ccc31)CN(C1CCCC1)C2
pKi (Cannabinoid receptor 1): 5.63
pKi (Cannabinoid receptor 2 [1]): 7.06
Ratio Ki (Homo sapiens): 26.5

CCCCN(C)C(=O)c1ccc2c(c1)c1c(n2S(=O)(=O)CC)CN(C2CCCC2)C1
pKi (Cannabinoid receptor 1): 6.11
pKi (Cannabinoid receptor 2 [1]): 7.65
Ratio Ki (Homo sapiens): 34.9
pEC50 (Cannabinoid receptor 2 [2]): 8.40
Emax (Cannabinoid receptor 2 [3]): 111%

CCS(=O)(=O)n1c2c(c3cc(C(=O)N(C)CCC(C)C)ccc31)CN(C1CCCC1)C2
pKi (Cannabinoid receptor 1): 5.83
pKi (Cannabinoid receptor 2 [1]): 7.42
Ratio Ki (Homo sapiens): 38.7

CCS(=O)(=O)n1c2c(c3cc(C(=O)N4CCC(C)CC4)ccc31)CN(CC1CC1)C2
pKi (Cannabinoid receptor 2 [1]): 8.20
pEC50 (Cannabinoid receptor 2 [2]): 9.30

CC1CCN(C(=O)c2ccc3c(c2)c2c(n3S(C)(=O)=O)CN(C3CCCC3)C2)CC1
pKi (Cannabinoid receptor 1): 6.55
pKi (Cannabinoid receptor 2 [1]): 8.10
Ratio Ki (Homo sapiens): 35.3
pEC50 (Cannabinoid receptor 2 [2]): 9.22
Emax (Cannabinoid receptor 2 [3]): 105%

CCCCN1Cc2c(n(S(=O)(=O)CC)c3ccc(C(=O)N4CCC(C)CC4)cc23)C1
pKi (Cannabinoid receptor 1): 6.47
pKi (Cannabinoid receptor 2 [1]): 7.77
Ratio Ki (Homo sapiens): 20.3
pEC50 (Cannabinoid receptor 2 [2]): 8.57
Emax (Cannabinoid receptor 2 [3]): 105%

CCS(=O)(=O)n1c2c(c3cc(C(=O)N4CCC(C)CC4)ccc31)CN(C1CCOCC1)C2
pKi (Cannabinoid receptor 1): 5.52
pKi (Cannabinoid receptor 2 [1]): 6.67
Ratio Ki (Homo sapiens): 14

CCS(=O)(=O)n1c2c(c3cc(C(=O)N4CCC(C)CC4)ccc31)CN(C1CCOC1)C2 (stereo not drawn)
pKi (Cannabinoid receptor 1): 6.01
pKi (Cannabinoid receptor 2 [1]): 7.56
Ratio Ki (Homo sapiens): 35

CCS(=O)(=O)n1c2c(c3cc(C(=O)N4CCC(F)CC4)ccc31)CN(C1CCCC1)C2
pKi (Cannabinoid receptor 1): 5.54
pKi (Cannabinoid receptor 2 [1]): 7.35
Ratio Ki (Homo sapiens): 65.9

CC1CCN(C(=O)c2ccc3c(c2)c2c(n3S(=O)(=O)c3ccccc3)CN(C3CCCC3)C2)CC1
pKi (Cannabinoid receptor 1): 6.59
pKi (Cannabinoid receptor 2 [1]): 7.75
Ratio Ki (Homo sapiens): 14.5
pEC50 (Cannabinoid receptor 2 [2]): 7.81
Emax (Cannabinoid receptor 2 [3]): -62%
